Values after ≈ are worked out from the molar mass of the structure shown. Where two headings read alike, the source gives them in different places.

The text below walks through data of US4880812A, “Pyrimidine compounds” (Burroughs Wellcome Co., priority 1986, dated 1989).

Data set [1] concerns mouse L cells. The experiment in a line: Reversal of Cytotoxic Activity on mouse L cells.
For another data set, the system named is Lactobacillus casei. The experiment in a line: activity against Lactobacillus casei. Format: cell-based. Conditions: in words.
For the next data set, the system named is D98 cells. Put plainly: Cell Culture Cytotoxicity Test, D98 cells. Particulars: Homo sapiens; 50 % of control; 70-76 hours of incubation; read-out: Concentration giving 50 % of Control, D-98 Cells. Format: cell-based. On the procedure:
(§1) B. Cell Culture Cytotoxicity Test Data
(§2) The two routine indicator cell lines used are (1.) D98, a twice-cloned derivative of Detroit 98s from American Type Culture Collection (ATCC) strain CCL 18.1, from human sternal bone marrow and (2.) L, a cloned derivative from NCTC 929 (ATCC CCL1,) a C3 H/An from mouse connective tissue. Inoculation densities for L and D98 cells are 1.0 and 1.5×10^5 cells, per cm^2, respectively. Control cells are grown in Eagle's MEM (Earle's salts, 10% horse serum, 100 units/ml potassium penicillin G and 100 μg/ml streptomycin) and should show at least two doublings during the test period. Test plates are seeded with similar quantities of cells and are grown in the same medium with test compounds added. Total "cell counts" are made with an electronic cell counter after 70-76 hours of incubation with one medium change at 20-26 hours. Dose response curves are prepared by plotting percent of control vs. concentration of compound.
(§3) The compounds of the invention included in this test and the results are as follows.

The test system of a further data set is yellow fever virus. Conditions: in words.
The subject of a further data set is Spiroplasma citri. The experiment in a line: Activity Against Spiroplasma citri, Sensitivity Test. Particulars: for MIC: Spiroplasma citri, 48 h, 32° C., no color change or two day delay in color change; for activity against the mycoplasma, Spiroplasma citri: in words. Format: cell-based. On the procedure: D. Data for Activity Against Spiroplasma citri, Sensitivity Test
Frozen broth cultures are diluted to a predetermined titre of 100 color changing units for the test. Organisms are grown in Difco PPLO broth base with added serum, glucose, phenol red, ampicillin, thallium acetate and yeast extract. Incubation is at 32° C. Incubation with varying levels of the test compound in the above medium are performed in well plates and an amount of Spiroplasma citri cells is added that will produce a color change by a fixed time of growth. The lowest concentration of compound that fails to produce a color change or gives a two day delay in color change indicates minimum inhibitory concentration.
The compounds of the invention included in this test and the results are as follows: […]

The next data set relates to Streptococcus faecium. Put plainly: activity against Streptococcus faecium. Format: cell-based. Particulars: in words.
The next data set relates to L cells. Put plainly: Cell Culture Cytotoxicity Test, L cells. Format: cell-based. Conditions: Mus musculus; 50 % of control; 70-76 hours of incubation; read-out: Concentration giving 50 % of Control, L-Cells. Here is the method:
as §1, §2, §3

In data set [2] the test system is lymphocytic leukemia P388/0. Put plainly: Lymphocytic Leukemia P388/0 Test (survival, mice). The class given is in vivo, CD2-F1 mice. The source says: A. Anti-neoplastic Activity Data for Lymohocytic Leukemia P388/0 Test
The tests employed for the evaluation of anti-neoplastic activity of the compounds of the present invention are essentially those used in the Tumor Panel of the Developmental Therapeutics Program, Division of Cancer Treatment, National Cancer Institute, A. Goldin, et al., Methods in Cancer Research, Vol. XVI, p. 165, Academic Press (1979). Some modifications, in dose level and schedule have been made to increase the testing efficiency.
CD2-F1 -mice, of the same sex, weighing within a 3 g range surrounding 20 g, are used for this test. Control and test animals are injected intraperitoneally with a suspension of […] viable P388/0 tumor cells on day 0. In each test, several dose levels which bracket the LD20 of the compound are evaluated; each dose level group contains six animals. The test compound is prepared either in physiologic saline containing 0.05% Tween 80 or distilled water containing 5% dextrose and is administered intraperitoneally on the indicated schedule relative to tumor implant. Doses are on a mg/kg basis according to individual animals' body weights. The day of death for each animal is recorded, the median identified for each group and the percent increase in life span (% ILS) is calculated from the ratio of survival time of treatment to control groups. The criterion for activity is % ILS greater than or equal to 20%.
The compound of the invention included in this test was the compound of Example 1, namely N-[4-[3-(2,4-diamino-1,6-dihydro-6-oxo-5-pyrimidinyl)propylamino]benzoyl]- L-glutamic acid and the results are as follows.

Data set [3] is described as follows: colour change on extended exposure to light. The class given is physicochemical. Particulars: white powder.
In data set [4] the test system is mouse L cells.

As to `NC(=O)c1ncn([C@@H]2O[C@H](COP(=O)(O)O)[C@@H](O)[C@H]2O)c1N` [AICAR, 5-aminoimidazole-4-carboxamide ribonucleotide, reference compound], the “reversal of the cytotoxicity of the compound of Example 3” value (“reversal … of Example 3” for short) in the data set on mouse L cells [1] (rescue agent against Example 3) was “able to reverse the cytotoxicity”.
Turning to `Nc1nc(N)c(CCCNc2ccc(C(=O)N[C@@H](CCC(=O)O)C(=O)O)cc2)c(=O)[nH]1` [Example 1, N-[4-[3-(2,4-diamino-1,6-dihydro-6-oxo-5-pyrimidinyl)propylamino]benzoyl]-L-glutamic acid], the “activity against Lactobacillus casei” value in the data set with Lactobacillus casei is reported as “activity”. In addition, the IC50 came out at 110 nM in the data set on D98 cells and 88 nM in the data set on L cells. For the same compound, the “activity against yellow fever virus” value in the data set with yellow fever virus is recorded as “some activity”. Besides, in the data set with Spiroplasma citri, the MIC – broadly, the smallest concentration in the dilution series that meets the test's criterion for growth inhibition – worked out at 0.01 µM (≈ 0.00432 µg/mL). In the data set with Spiroplasma citri, the “activity against the mycoplasma, Spiroplasma citri” value (“activity against the mycoplasma” below) is “activity”. In addition, in the data set with Streptococcus faecium, the “activity against Streptococcus faecium” value is reported as “activity”. Further, the activity at 0.2 µM with mouse L cells [1] (Mus musculus, read-out: % of Control, compound alone, 2 × 10^-7 M (experiment with Ca leucovorin)) amounted to 36%; in the data set with mouse L cells [1] (Mus musculus, read-out: % of Control, compound alone, 2 × 10^-7 M (experiment with hypoxanthine)), 40%. The “% Increased Life Span” value in data set [2] (2.5 mg/kg i.p., twice a day, on days 1, 2 and 3) is on record as “+20%”; in data set [2] (5 mg/kg i.p., every 4 hours for 3 doses on days 1-4), “+22%”; in data set [2] (5 mg/kg i.p., every hour for 8 doses on days 1 and 3), “+60%”; in [2] (5 mg/kg i.p., twice a day, on days 1, 2, and 3), “+35%”; in data set [2] (7.5 mg/kg i.p., twice a day, on days 1, 2 and 3), “+40%”; in data set [2] (10 mg/kg i.p., every 4 hours for 3 doses on days 1-4) it was “+80%”. Moreover, the “% Increased Life Span” value in data set [2] (20 mg/kg i.p., every hour for 8 doses on days 1 and 3) was “+60%”; in data set [2] (182 mg/kg i.p., day 1, 5, 9), “+20%”.
As to `CN(CCCc1c(N)nc(N)[nH]c1=O)c1ccc(C(=O)N[C@@H](CCC(=O)O)C(=O)O)cc1` [Example 2, N-[4-[3-(2,4-diamino-1,6-dihydro-6-dihydro-6-oxo-5-pyrimidinyl)-N-methylpropylamino]benzoyl]-L-glutamic acid], in the data set with D98 cells, the IC50 amounted to 3000 nM. Further, in the data set with Spiroplasma citri, the MIC amounted to 0.1 µM (≈ 0.0446 µg/mL) and the “activity against the mycoplasma” value is listed as “activity”. Moreover, the IC50 with L cells amounted to 400 nM.
`Nc1nc(N)c(CCCN(C=O)c2ccc(C(=O)N[C@@H](CCC(=O)O)C(=O)O)cc2)c(=O)[nH]1` [Example 3, N-[4-[3-(2,4-Diamino-1,6-dihydro-6-oxo-5-pyrimidinyl)-N-formylpropylamino]benzoyl]-L-glutamic acid]: the IC50 with D98 cells was determined as 210 nM; with L cells it was 18 nM. The “activity against yellow fever virus” value with yellow fever virus was “some activity”. This compound also returned a minimal inhibitory concentration (MIC) against Spiroplasma citri of 0.1 µM (≈ 0.046 µg/mL). Also, the “activity against the mycoplasma” value in the data set on Spiroplasma citri was “activity”. Further, in the data set with mouse L cells [1] (Mus musculus, read-out: % of Control, compound alone, 4 × 10^-8 M), the activity at 0.04 µM turned out to be 37%.
As to `Nc1nc(N)c(CCNc2ccc(C(=O)N[C@@H](CCC(=O)O)C(=O)O)cc2)c(=O)[nH]1` [Example 4, N-[4-[2-(2,4-diamino-1,6-dihydro-6-oxo-5-pyrimidinyl)ethylamino]benzoyl]-L-glutamic acid], the IC50 with D98 cells stood at 700 nM; in the data set on L cells, 400 nM.
For the compound `CN(CCc1c(N)nc(N)[nH]c1=O)c1ccc(C(=O)N[C@@H](CCC(=O)O)C(=O)O)cc1` [Example 5, N-[4-[2-(2,4-diamino-1,6-dihydro-6-oxo-5-pyrimidinyl)ethyl-N-methylamino]benzoyl]-L-glutamic acid], the figures for the IC50 with D98 cells and with L cells were 7000 nM and 750 nM, respectively. For the same compound, the “colour change upon extended exposure to light” value in [3] was “became tan upon extended exposure to light”.
With `Nc1nc2c(c(=O)[nH]1)N(C=O)C(CNc1ccc(C(=O)N[C@@H](CCC(=O)O)C(=O)O)cc1)CN2` (stereo partly shown) [calcium leucovorin], in the data set with mouse L cells [4], the “reversal of the cytotoxicity of the compound of Example 1” value was “able to reverse the cytotoxicity” and the “reversal … of Example 3” value is “able to reverse the cytotoxicity”.
Take `O=c1[nH]cnc2nc[nH]c12` [hypoxanthine]: in the data set on mouse L cells [4], the “reversal of the cytotoxicity of the compound of Example 1” value is “able to reverse the cytotoxicity” and the “reversal … of Example 3” value is recorded as “able to reverse the cytotoxicity”.
